Measurements: patent US4451477A, “Bendazac treatment of cataract” (Aziende Chimiche Riunite Angelini Francesco A.C.R.A.F. …, priority 1981, dated 1984)
Several values for one entry are separate records, joined by “and”; a condition that tells them apart may be missing. Equal entries are not always repeated. Entries after “also recorded” stand apart in the source; their conditions may differ. Structures can show the parent of a compound that is named as a salt. Where two headings read alike, the source gives them in different places.

Assays:
[1] = tested on: cataract; assay: second experiment: double blind placebo-controlled anti-cataract study in patients, oral; format: in vivo, human; parameters: key to Vision / Refraction / Overall Judgement / Slit-lamp / Transillumination: +: improvement; 0: no change; -: worsening
Description: (§1) A first experiment was conducted on 24 patients with different types of cataract (cortical; corticonuclear, posterior subcapsular). […] The experiment included an examination of vision, refraction and slit-lamp test; the investigator was asked to express an overall judgement. These evaluations were performed before the beginning of treatment, after 4 weeks and again at the end of treatment when prolonged. The lysine salt of bendazac was administered at the dose of 1500 mg (corresponding to […] of bendazac) divided into three daily administrations during meals. The average duration of treatment was 50.4 days with time limits from 28 to 86 days. The study group consisted of 11 females and 13 males with an average age of 59.5 (47-74). The effects of treatment are summarized in Table 3; the values obtained in each patient are illustrated instead in Table 4. For practical purposes the results are expressed as: improvement (+), no change (0), worsening (-).
As a result of these encouraging results we decided to repeat the experiment under double blind conditions comparing the lysine salt of bendazac with placebo. A total of 35 patients were used; 19 were treated with placebo and 16 with the lysine salt of bendazac. The experimental methods used were identical to those described in the first experiment except for the duration of treatment which was always 4 weeks.

[2] = oral absorption in man, serum concentration after single oral administration; format: in vivo, human; conditions: for concentration at 2 h: human, serum
From the text: These blood levels appeared too low to obtain therapeutic activity.

[3] = tested on: cataract; assay: eye drops instilled in 4 patients with cataract; format: in vivo, human; conditions: topical, eye drops 3 times daily for one month
Description: Finally, bendazac was administered in 4 patients in the form of eye drops containing 0.25% of the lysine salt of bendazac. Eye drops were instilled 3 times daily for one month.

[4] = tested on: cataract; assay: first experiment: anti-cataract activity in 24 patients, oral; format: in vivo, human; parameters: key to Vision / Refraction / Slit-lamp and/or transillumin. / Overall Judgement: +: improvement; 0: no change; -: worsening
Description: as §1

[5] = tested on: cataract; conditions: literature, cited from earlier work
[6] = tested on: blood proteins; conditions: literature; cited from earlier work
[7] = tested on: isolated bovine lenses; assay: heat-induced opacification of isolated intact bovine lenses (50° C., 120 min, blind score); conditions: same molar concentrations for salts
Description: (§2) Experiments in vitro: A study was performed on both lens homogenates and intact lens. The opacification of this material was obtained by heating. For this purpose the same method as that already employed to study blood proteins was used (Silvestrini et al., 1968; Silvestrini et al., 1970) with some minor modifications which are reported below.
(§3) The experiment was repeated using different salts of bendazac including lithium, sodium, potassium, ammonium, organic bases (such as ethylenediamine, piperazine and diisopropylamine) and lysine. […] This experiment proves that the active ingredient is bendazac. The intact lens was studied by using fresh bovine lens which were kept for 2 hours in the phosphate buffer described above, either alone or containing bendazac at different concentrations. The lenses were then heated at 50° C. for 120 minutes; this procedure produced a clear-cut opacification in the subcapsular region. The degree of opacification was assessed blindly (the experimentor was unaware of the treatment), using a score from 0 to 4.
The test was repeated using the various salts of bendazac mentioned above and in this case also with the same molar concentrations the results obtained were identical to those observed with bendazac alone.

[8] = cited from earlier work
[9] = tested on: lens homogenate; assay: heat-induced denaturation of lens homogenate (60° C., 20 min, nephelometric); format: biochemical, rat; conditions: for % inhibition of heat-induced denaturation of lens homogenate: 60° C., 20 min, pH 7.5
Description: as §2
(§4) For the study of the homogenate, fresh rat lens were used which has been removed from the capsule, immersed in phosphate buffer (pH 7.5; 0.1M) in the volumetric ratio of 15:85 and then homogenated. The homogenate was then centrifuged (10 minutes at 4000 r.p.m.), the supernatant was collected and further diluted 1:1 with the above phosphate buffer, alone or containing bendazac at different concentrations. The solution thus obtained was heated at 60° C. for 20 minutes and the denaturation was assessed nephelometrically. As reference a comparison is made with the values obtained with bovine serum albumin (BSA) denaturation.
as §3

[10] = biological target: bovine serum albumin (BSA) (Bos taurus, UniProt P02769); assay: heat-induced denaturation of bovine serum albumin (BSA); format: biochemical
Description: as §4, with “Experiments in vitro: A study was performed on both lens homogenates and intact lens. The opacification of this material was obtained by heating. For this purpose the same method as that already employed to study blood proteins was used (Silvestrini et al., 1968; Silvestrini et al., 1970) with some minor modifications which are reported below. For” for “For”

[11] = 16 patients, 4 weeks, double blind, placebo (19) 1
[12] = 16 patients, 4 weeks, double blind, placebo (19) 2
[13] = 16 patients, 4 weeks, double blind, placebo (19) --
[14] = individual patient, one per line of Table 6, 4 weeks, oral, listed as bendazac L, (dihydrate)
[15] = 24 patients, 1500 mg daily oral, Table 3 summary
[16] = individual patient, one per line of Table 4, 1500 mg daily oral, 28-86 days, (dihydrate)
[17] = drug molar concentration 5 × 10^-4

Chain of bovine serum albumin (BSA) (P02769 25-607): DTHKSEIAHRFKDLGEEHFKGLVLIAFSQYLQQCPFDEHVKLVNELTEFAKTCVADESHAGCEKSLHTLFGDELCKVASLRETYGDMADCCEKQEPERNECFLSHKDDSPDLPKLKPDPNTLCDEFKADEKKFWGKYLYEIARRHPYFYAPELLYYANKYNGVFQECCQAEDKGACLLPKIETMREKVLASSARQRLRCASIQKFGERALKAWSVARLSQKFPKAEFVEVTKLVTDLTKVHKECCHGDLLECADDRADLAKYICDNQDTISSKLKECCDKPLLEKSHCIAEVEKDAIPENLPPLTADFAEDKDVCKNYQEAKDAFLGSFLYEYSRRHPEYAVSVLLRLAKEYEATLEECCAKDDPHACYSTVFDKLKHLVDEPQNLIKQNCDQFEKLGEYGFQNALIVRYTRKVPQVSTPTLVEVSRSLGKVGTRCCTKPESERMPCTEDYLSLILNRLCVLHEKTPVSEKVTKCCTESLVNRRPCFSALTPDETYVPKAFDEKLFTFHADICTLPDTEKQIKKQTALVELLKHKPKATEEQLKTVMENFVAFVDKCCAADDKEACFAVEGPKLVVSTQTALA

O=C(O)COc1nn(Cc2ccccc2)c2ccccc12 [lysine salt of bendazac, Salt of [(1-benzyl-1H-indazol-3-yl)oxy]acetic acid with L. lysine (dihydrate)]
Overall Judgement: worsening (-), number of patients ([1]; 16 patients, 4 weeks, double blind): 2
Overall Judgement: improvement (+), number of patients [1, 11]: 11
Refraction: improvement (+), number of patients [1, 11]: 9
Transillumination: no change (0), number of patients [1, 11]: 2
Vision: improvement (+), number of patients [1, 11]: 10
Overall Judgement: no change (0), number of patients [1, 12]: 3
Slit-lamp: no change (0), number of patients [1, 12]: 2
Vision: no change (0), number of patients ([1]; 16 patients, 4 weeks, double blind, placebo (19) 6): 6
Slit-lamp: worsening (-), number of patients ([1]; 16 patients, 4 weeks, double blind, placebo (19) 9): 1
Refraction: no change (0), number of patients ([1]; 16 patients, 4 weeks, double blind, placebo (19) 12): 7
Slit-lamp: improvement (+), number of patients [1, 13]: 10
Transillumination: improvement (+), number of patients [1, 13]: 4
Overall Judgement [1, 14]: 0 and + and -
Refraction [1, 14]: 0 and +
Slit-lamp [1, 14]: + and 0 and -
Transillumination [1, 14]: + and 0
Vision [1, 14]: 0 and +
effect on cataract ([1]; oral administration, patients, (dihydrate)): healing effect on cataract; also recorded: induces a regression of the disease
concentration at 2 h ([2]; 2 hours after single oral administration of 500 mg lysine salt (= 303.8 mg bendazac), 6 volunteers, read-out: mean serum concentration): 30000 ng/mL
oral absorption in man ([2]; lysine salt vs bendazac alone, (dihydrate)): good oral absorption; also recorded: better absorbed in man than bendazac alone
effect on cataract [3]: induces a regression of the disease
Overall Judgement: improvement (+), number of patients [4, 15]: 18
Overall Judgement: no change (0), number of patients [4, 15]: 5
Overall Judgement: worsening (-), number of patients [4, 15]: 1
Refraction: improvement (+), number of patients [4, 15]: 10
Refraction: no change (0), number of patients [4, 15]: 13
Refraction: worsening (-), number of patients [4, 15]: 1
Slit-lamp and/or Transillum.: improvement (+), number of patients [4, 15]: 14
Slit-lamp and/or Transillum.: no change (0), number of patients [4, 15]: 10
Vision: improvement (+), number of patients [4, 15]: 18
Vision: no change (0), number of patients [4, 15]: 6
number of patients with improvement ([4]; depending on the evaluation method): 10-18 patients
number of patients with relatively poor results ([4]; first experiment, 24 patients): 5 patients
number of patients with worsening effect ([4]; first experiment, 24 patients): 1 patient
Overall Judgement [4, 16]: + and - and 0
Refraction [4, 16]: + and 0 and -
Slit-lamp and/or transillumin. [4, 16]: + and 0
Vision [4, 16]: + and 0

CC(=O)Oc1ccccc1C(=O)O [aspirin, acetylsalicylic acid]
effect on cataract development (words) [5]: possible slowdown in cataract development
effect on cataract development (words) ([5]; listed as acetylsalicylic acid): delays the development of cataract but does not determine its regression

O=C(O)COc1nn(Cc2ccccc2)c2ccccc12 [bendazac, [(1-benzyl-1H-indazol-3-yl)oxy]acetic acid]
anti-denaturant activity on proteins [6]: very specific anti-denaturant activity on some blood proteins
concentration at 2 h ([2]; 300 mg of bendazac alone, oral, under the same conditions, read-out: serum levels): 8000 ng/mL
protective effect on lens opacification in vitro (words) [7]: protective action in vitro with respect to lens opacification
protective effect on lens opacification in vitro (words) ([7]; listed as Bendazac): clearcut protective effect on this experimentally induced cataract
oral absorption in humans ([8]; Silvestrini et al.): rather low; also recorded: too low
blood levels ([8]; following 8 days of treatment at increasing doses from 150 to 900 mg daily, humans): 8 µg
protective effect on heat-induced denaturation of lens homogenate ([9]; compared with BSA): prevents heat-induced denaturation of lens homogenate and that this protective effect is similar to that observed with BSA
% inhibition of heat-induced denaturation of lens homogenate [9, 17]: 32%
% inhibition of heat-induced denaturation of lens homogenate ([9]; drug molar concentration 10^-3): 68%
% inhibition of heat-induced denaturation of lens homogenate ([9]; drug molar concentration 10^-4): 18%
inhibition at 500 µM [10, 17]: 47%
inhibition at 1000 µM ([10]; drug molar concentration 10^-3): 60%
inhibition at 100 µM ([10]; drug molar concentration 10^-4): 12%

O=C(O)c1cc(O)c2c3nc4ccccc4oc-3cc(=O)c2n1 [Catalin, 1-hydroxy-5-oxo-5H-pyrido[3,2-a]phenoxazino-3-carboxylic acid]
effect on cataract development (words) [5]: possible slowdown in cataract development

O=C(O)COc1nn(Cc2ccccc2)c2ccccc12
anti-denaturant effect on the lens homogenate compared with bendazac alone ([9]; at the same molar concentrations): the same anti-denaturant effect on the lens homogenate as that of bendazac alone
